Experimental data published in patent publication US20230201290A1, “TGF-BETA INHIBITION, AGENTS AND COMPOSITION THEREFOR” (GMP BIOTECHNOLOGY LIMITED, priority 2020, published 2023).
pEC50: −log10 of the molar value. Converted amounts (≈) assume the structure as drawn. “And” between values parts separate entries of the source, which are not always exact repeats. Equal values may be shown once. Read-outs that look alike come from different tables or passages of the source.

Tests used:
[1] = healthy subjects; cited from earlier work
SARS-COV-2 USA_WA1/2020 [2] = conditions: for SI=CC50/EC50: SARS-CoV-2; for SI (CC50/EC50): SARS-CoV-2, Vero 76 cells; for EC50: 50% effective antiviral concentration: SARS-CoV-2 USA_WA1/2020, Vero 76, CPE neutral red, day 5; for Antiviral activity against SARS-CoV-2 (words): Vero 76
Vero 76 cells = conditions: for CC50: 50% cytotoxic concentration of compound without virus added: run alongside SARS-CoV-2 test
SARS-CoV-2 virus = conditions: higher values with higher multiplicity of infection; read-out: EC50 values for SARS-CoV-2 virus in the literature; cited from earlier work
Vero E6 cells = conditions: remdesivir, literature; cited from earlier work
falciparum malaria = conditions: cited from earlier work; for recrudescence in a month: 1975, 3-day regimens
vivax malaria = conditions: cited from earlier work; for relapse rate within a month: 1975 comparison with chloroquine
C8161 human melanoma = assay: Orthotopic C8161 human melanoma model
SARS-CoV-2 [3] = conditions: Vero E6, MOI 0.01, 24 h post-infection; cited from earlier work
SARS-CoV-2 [4] = conditions: VeroE6, 2-day incubation; cited from earlier work
cerebral malaria = conditions: cited from earlier work
TGF-β mRNA = conditions: 100 mg/kg ip daily for 20 days; P<0.01; cited from earlier work
in vitro = conditions: African green monkey
[5] = cited from earlier work
[6] = 500 mg orally, Child B cirrhosis; cited from earlier work
SARS-COV-2 USA_WA1/2020 [7] = assay: microbe, parasite or virus in culture; conditions: for EC50: Severe acute respiratory syndrome coronavirus 2, Vero 76, 120 h
[8] = 527 cases of falciparum malaria

## Clc1ccc2c(N3CCN(CCCN4CCN(c5ccnc6cc(Cl)ccc56)CC4)CC3)ccnc2c1 [piperaquine]
[1]
  slope of plasma concentration vs placebo-adjusted ΔQTcF: 0.047 ms per ng ml-1

## GGTAGGTAAAAACCTAATAT [5TERM (1-20)] (phosphorothioate backbone, further chemistry not given here)
SARS-COV-2 USA_WA1/2020 [2]
  SI=CC50/EC50: >140
  SI (CC50/EC50): >140
  EC50: 50% effective antiviral concentration: 7.1 µg/mL
  Antiviral activity against SARS-CoV-2 (words): High antiviral activity
Vero 76 cells
  CC50: > 1000 µg/mL
  CC50: 50% cytotoxic concentration of compound without virus added: >1000 µg/mL

## CCN(CCO)CCCC(C)Nc1ccnc2cc(Cl)ccc12 (stereo not drawn) [hydroxychloroquine]
SARS-CoV-2 virus
  pEC50: 4.76 to 6.14

## CGTTTAGAGAACAGATCTAC [TRS2-2 53-72] (phosphorothioate backbone, further chemistry not given here)
SARS-COV-2 USA_WA1/2020 [2]
  SI=CC50/EC50: >530
  SI (CC50/EC50): >530
  EC50: 50% effective antiviral concentration: 1.9 µg/mL
  Antiviral activity against SARS-CoV-2 (words): High antiviral activity
Vero 76 cells
  CC50: > 1000 µg/mL
  CC50: 50% cytotoxic concentration of compound without virus added: >1000 µg/mL

## CCC(CC)COC(=O)[C@H](C)N[P@](=O)(OC[C@H]1O[C@@](C#N)(c2ccc3c(N)ncnn23)[C@H](O)[C@@H]1O)Oc1ccccc1 [Remdesivir]
Vero E6 cells
  CC50: > 200000 nM

## CGTTTAGAGAACAGATCTAC [TRS2-2 53-72 MOE] (2'-MOE modified, pattern not given here)
SARS-COV-2 USA_WA1/2020 [2]
  SI=CC50/EC50: >16
  SI (CC50/EC50): >16
  EC50: 50% effective antiviral concentration: 62 µg/mL
Vero 76 cells
  CC50: > 1000 µg/mL
  CC50: 50% cytotoxic concentration of compound without virus added: >1000 µg/mL

## CCN(CC)CCCC(C)Nc1ccnc2cc(Cl)ccc12 (stereo not drawn) [chloroquine]
Falciparum malaria
  recrudescence in a month: 50%
Vivax malaria
  relapse rate within a month: no cases of relapse

## GGTAGGTAAAAACCTAATAT [5TERM (1-20) MOE] (2'-MOE modified, pattern not given here)
SARS-CoV (Urbani strain)
  SI (CC50/EC50): >2.6
SARS-COV-2 USA_WA1/2020 [2]
  SI=CC50/EC50: 120
  SI (CC50/EC50): 120
  EC50: 50% effective antiviral concentration: 4.9 µg/mL
  Antiviral activity against SARS-CoV-2 (words): High antiviral activity
Vero 76 cells
  Cytotoxicity: Cytotoxicity was observed
  CC50: 50% cytotoxic concentration of compound without virus added: 610 µg/mL
Vero 76 cells; SARS-CoV-2 test
  Cytotoxicity: Cytotoxicity was observed

## CTCCCTCATGGTGGCAGTTGA (chemistry not given here) [RSV, reference compound]
SARS-COV-2 USA_WA1/2020 [2]
  SI=CC50/EC50: >1.6
  SI (CC50/EC50): >1.6
  EC50: 50% effective antiviral concentration: 620.0 µg/mL and 620 µg/mL
  Antiviral activity against SARS-CoV-2 (words): did not demonstrate any suppression
Vero 76 cells
  CC50: > 1000 µg/mL

## AGCCCTGTATACGAC [FS (13.458-13.274)MOE] (2'-MOE modified, pattern not given here)
SARS-COV-2 USA_WA1/2020 [2]
  SI=CC50/EC50: >40
  EC50: 50% effective antiviral concentration: 25 µg/mL
Vero 76 cells
  CC50: 50% cytotoxic concentration of compound without virus added: >1000 µg/mL

## CATTGTAGATGTCAAAAGCC (phosphorothioate backbone, further chemistry not given here) [FS-2a (13539-13558)]
SARS-COV-2 USA_WA1/2020 [2]
  SI=CC50/EC50: >59
  SI (CC50/EC50): >59
  EC50: 50% effective antiviral concentration: 17 µg/mL
  Antiviral activity against SARS-CoV-2 (words): High antiviral activity
Vero 76 cells
  CC50: > 1000 µg/mL
  CC50: 50% cytotoxic concentration of compound without virus added: >1000 µg/mL

## GTTCGTTTAGAGAACAGATC (phosphorothioate backbone, 5-methyl C, further chemistry not given here) [TRS1 (53-72)]
SARS-COV-2 USA_WA1/2020 [2]
  SI=CC50/EC50: 95
  SI (CC50/EC50): 95
  EC50: 50% effective antiviral concentration: 7.6 µg/mL
  Antiviral activity against SARS-CoV-2 (words): High antiviral activity
Vero 76 cells; SARS-CoV-2 test
  Cytotoxicity: Cytotoxicity was observed
Vero 76 cells
  CC50: 50% cytotoxic concentration of compound without virus added: 720 µg/mL

## CN(C)/N=N/c1[nH]cnc1C(N)=O [DTIC, dacarbazine]
C8161 human melanoma; group 3: 1 mg/kg ip four times/week
  Tumor growth suppressed versus control group 1 on day 42: −2%
C8161 human melanoma; group 4: 10 mg/kg ip four times/week
  Tumor growth suppressed versus control group 1 on day 42: 78%

## C[C@@H]1CC[C@H]2[C@@H](C)C(=O)O[C@@H]3O[C@@]4(C)CC[C@@H]1[C@]32OO4 [Artemisinin]
SARS-COV-2 USA_WA1/2020 [2]
  Antiviral activity against SARS-CoV-2 (words): suppressed SARS-CoV-2 replication
SARS-COV-2 USA_WA1/2020 [2]; listed as artemisinin
  Antiviral activity against SARS-CoV-2 (words): High antiviral activity
SARS-CoV-2 [3]
  anti-SARS-CoV-2 activity by RTPCR method: confirmed
SARS-CoV-2 [4]
  anti-SARS-CoV-2 activity by immunostaining for spike protein: confirmed
Falciparum malaria; 143 cases, 3-day regimen oil, oil suspension or water suspension
  cure of chloroquine-resistant (RI-RIII) cases: all patients were cured
Falciparum malaria; [8]
  Fever clearance time: 30 to 40 h
  asexual parasite clearance time: 30 to 50 h
Falciparum malaria; 1975, 3-day regimens: artemisinin tablets 2.5 g, chloroquine 1.5 g base
  average asexual parasite clearance time: 37 ± 17.8 h
Falciparum malaria
  recrudescence in a month: All the cases
Falciparum malaria; group A: 500 mg daily for 5 days
  average parasite clearance time: 34 ± 14 h
Falciparum malaria; group B: 100/100/250/250/500 mg escalating
  average parasite clearance time: 50 ± 23 h
Falciparum malaria; single 500 mg oral dose, 11 patients
  mean parasite clearance time: 36 h
Falciparum malaria; tablets
  recrudescence rate within a month: 85%
Vivax malaria; 1511 cases of vivax malaria
  average asexual parasite clearance time: 30 to 40 h
  average defervescence time: 20 to 30 h
Vivax malaria; 1975: artemisinin tablets total 3 g, chloroquine total 1.5 g base
  parasite clearance time: 39.6 ± 13.5 h
Vivax malaria
  relapse rate within a month: 21.4%
Cerebral malaria; 141 patients
  mortality rate: 7.1%
  patients cured: 92.9%
Cerebral malaria; across all sites
  average defervescence time: 34.1 to 56.7 h
  average parasite clearance time: 33.3 to 64.5 h
  average time taken to regain consciousness: 21.5 to 30.8 h
Cerebral malaria; nasogastric gavage, 36 patients
  cure rate: 91.7%
TGF-β mRNA
  TGF-β mRNA levels within the tumor: significantly decreased
In vitro
  CC50: 61 µg/mL (≈ 216 µM)
[5]; 500 mg after food
  AUC: 2,092±1,441 ng×ml^−1×h
  time at which half of the terminal value was reached: 0.97 ± 0.68 h
[5]; 500 mg capsules after food, six healthy subjects
  maximum concentration of drug in serum (Cmax): 443 ± 224 ng/mL
[5]; 1×250, 2×250, 4×250 mg capsules, eight healthy subjects
  oral plasma clearance: about 400 L h-1
[5]; population PK, 15 subjects, 160 and 500 mg
  mean oral clearance: 417 L/h
[5]; population PK, 15 subjects
  terminal elimination half-life: 1.93 h
  volume of distribution: 1210 L
[5]; semiphysiological autoinduction model, saliva
  mean induction time of own metabolism: 1.9 h
[6]
  elimination half-life, log-linear regression: 4 (±1.3) h
  elimination half-life, non-linear regression, one-compartment model: 2.4 ± 0.9 h
  mean (±SD) area under the concentration time curve: 2365 (±1761) h ng/ml
  mean (±SD) clearance: 382 (±303) L/h
SARS-COV-2 USA_WA1/2020 [7]; read-out: EC50 (50% effective antiviral concentration)
  EC50: 0.45 µg/mL
SARS-COV-2 USA_WA1/2020 [7]; read-out: EC50: 50% effective antiviral concentration
  EC50: 0.45 µg/mL
SARS-COV-2 USA_WA1/2020 [7]; Severe acute respiratory syndrome coronavirus 2, Vero 76, read-out: EC50 (value in brackets)
  pEC50: 5.80

## AGCCCTGTATACGAC [FS (13,458-13,472)] (antisense AGCCCTGTAGACGAC; phosphorothioate backbone, further chemistry not given here)
SARS-COV-2 USA_WA1/2020 [2]
  SI=CC50/EC50: 53
  SI (CC50/EC50): 53
  EC50: 50% effective antiviral concentration: 5.2 µg/mL
  Antiviral activity against SARS-CoV-2 (words): High antiviral activity
Vero 76 cells; SARS-CoV-2 test
  Cytotoxicity: Cytotoxicity was observed
Vero 76 cells
  CC50: 50% cytotoxic concentration of compound without virus added: 430 µg/mL

## TAAAGTTCGTTTAGAGAACAG (phosphorothioate backbone, further chemistry not given here) [TRS2 (56-76)]
SARS-CoV (Urbani strain)
  SI (CC50/EC50): >2.9
SARS-COV-2 USA_WA1/2020 [2]
  SI=CC50/EC50: >14
  SI (CC50/EC50): >14
  EC50: 50% effective antiviral concentration: 73 µg/mL
Vero 76 cells
  CC50: > 1000 µg/mL
  Cytotoxicity: Cytotoxicity was observed
  CC50: 50% cytotoxic concentration of compound without virus added: >1000 µg/mL
